Measurements: the kinase profiling compilation of Christmann-Franck et al. (2016)

Legend:
Assay in all cases: radiometric filter-binding kinase assay, Kinase HotSpot
Details in all cases: compound 0.5 µM; ATP 10 µM
PAK1 (human) = PAK1 (human) (UniProt Q13153)
DAPK1 (human) = DAPK1 (human) (UniProt P53355)
HIPK4 (human) = HIPK4 (human) (UniProt Q8NE63)
YES1 (human) = YES1 (human) (UniProt P07947)
MAP3K9 (human) = MAP3K9 (human) (UniProt P80192)
TAOK3 (human) = TAOK3 (human) (UniProt Q9H2K8)
MYO3B (human) = MYO3B (human) (UniProt Q8WXR4)
SGK3 (human) = SGK3 (human) (UniProt Q96BR1)
ZAP70 (human) = ZAP70 (human) (UniProt P43403)
TEK (human) = TEK (human) (UniProt Q02763)
AURKB (human) = AURKB (human) (UniProt Q96GD4)
WNK2 (human) = WNK2 (human) (UniProt Q9Y3S1)
HIPK2 (human) = HIPK2 (human) (UniProt Q9H2X6)
ITK (human) = ITK (human) (UniProt Q08881)
PLK3 (human) = PLK3 (human) (UniProt Q9H4B4)
AXL (human) = AXL (human) (UniProt P30530)
PRKCE (human) = PRKCE (human) (UniProt Q02156)
PTK2B (human) = PTK2B (human) (UniProt Q14289)
FLT3 (human) = FLT3 (human) (UniProt P36888)
CDK9 CCNT1 (human) = CDK9 CCNT1 (human) (UniProt P50750+O60563)
MAP3K3 (human) = MAP3K3 (human) (UniProt Q99759)
CSNK1E (human) = CSNK1E (human) (UniProt P49674)
GSG2 (human) = GSG2 (human) (UniProt Q8TF76)
SRPK2 (human) = SRPK2 (human) (UniProt P78362)
CAMK1G (human) = CAMK1G (human) (UniProt Q96NX5)
NLK (human) = NLK (human) (UniProt Q9UBE8)
[1] = target: TYK2 JH1 catalytic (human) (UniProt P29597)
STK33 (human) = STK33 (human) (UniProt Q9BYT3)
CDK9 CCNK (human) = CDK9 CCNK (human) (UniProt O75909+P50750)
NTRK2 (human) = NTRK2 (human) (UniProt Q16620)
TXK (human) = TXK (human) (UniProt P42681)
MAP3K14 (human) = MAP3K14 (human) (UniProt Q99558)
STK38 (human) = STK38 (human) (UniProt Q15208)
MAP3K5 (human) = MAP3K5 (human) (UniProt Q99683)
RPS6KB2 (human) = RPS6KB2 (human) (UniProt Q9UBS0)
MAPKAPK2 (human) = MAPKAPK2 (human) (UniProt P49137)
CLK1 (human) = CLK1 (human) (UniProt P49759)
PLK2 (human) = PLK2 (human) (UniProt Q9NYY3)
FLT1 (human) = FLT1 (human) (UniProt P17948)
STK4 (human) = STK4 (human) (UniProt Q13043)
IGF1R (human) = IGF1R (human) (UniProt P08069)
SYK (human) = SYK (human) (UniProt P43405)

Sequence of YES1 (human) (P07947 whole entry, looked up): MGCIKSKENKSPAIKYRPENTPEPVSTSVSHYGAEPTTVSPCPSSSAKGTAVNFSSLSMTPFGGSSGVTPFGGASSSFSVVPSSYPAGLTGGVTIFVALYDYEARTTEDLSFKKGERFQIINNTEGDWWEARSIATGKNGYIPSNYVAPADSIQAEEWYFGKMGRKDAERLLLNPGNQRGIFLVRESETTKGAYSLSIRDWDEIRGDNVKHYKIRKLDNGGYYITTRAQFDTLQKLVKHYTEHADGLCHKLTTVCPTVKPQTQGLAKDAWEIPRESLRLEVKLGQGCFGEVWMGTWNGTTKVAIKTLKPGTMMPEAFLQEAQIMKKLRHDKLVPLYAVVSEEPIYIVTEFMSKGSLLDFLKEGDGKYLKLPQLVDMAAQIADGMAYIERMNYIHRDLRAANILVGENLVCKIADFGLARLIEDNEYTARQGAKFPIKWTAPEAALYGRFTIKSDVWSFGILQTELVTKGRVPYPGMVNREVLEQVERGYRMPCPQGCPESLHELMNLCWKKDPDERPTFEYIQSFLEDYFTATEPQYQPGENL
Sequence of RPS6KB2 (human) (Q9UBS0 whole entry, looked up): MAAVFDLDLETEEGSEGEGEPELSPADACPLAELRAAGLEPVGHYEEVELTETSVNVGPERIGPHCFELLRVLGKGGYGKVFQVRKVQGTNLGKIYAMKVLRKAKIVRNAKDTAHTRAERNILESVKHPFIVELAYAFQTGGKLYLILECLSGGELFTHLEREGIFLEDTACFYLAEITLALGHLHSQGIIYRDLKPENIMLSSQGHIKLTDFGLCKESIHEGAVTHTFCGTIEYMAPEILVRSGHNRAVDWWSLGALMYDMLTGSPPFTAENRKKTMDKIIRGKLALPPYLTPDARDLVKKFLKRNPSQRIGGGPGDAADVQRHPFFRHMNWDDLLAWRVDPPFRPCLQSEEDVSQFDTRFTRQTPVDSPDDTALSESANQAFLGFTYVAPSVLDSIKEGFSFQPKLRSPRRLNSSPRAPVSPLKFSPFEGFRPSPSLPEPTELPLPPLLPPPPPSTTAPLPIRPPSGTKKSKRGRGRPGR
Sequence of CSNK1E (human) (P49674 whole entry, looked up): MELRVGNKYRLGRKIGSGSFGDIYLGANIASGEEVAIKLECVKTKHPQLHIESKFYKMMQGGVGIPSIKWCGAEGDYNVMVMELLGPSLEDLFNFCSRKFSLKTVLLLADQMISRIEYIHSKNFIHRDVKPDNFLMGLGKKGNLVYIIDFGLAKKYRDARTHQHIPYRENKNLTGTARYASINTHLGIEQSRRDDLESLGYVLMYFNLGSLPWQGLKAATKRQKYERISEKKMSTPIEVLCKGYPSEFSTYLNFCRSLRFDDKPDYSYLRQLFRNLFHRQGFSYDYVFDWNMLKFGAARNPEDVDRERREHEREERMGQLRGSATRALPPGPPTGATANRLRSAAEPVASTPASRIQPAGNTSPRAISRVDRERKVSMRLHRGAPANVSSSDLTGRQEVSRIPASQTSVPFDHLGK
Sequence of NTRK2 (human) (Q16620 whole entry, looked up): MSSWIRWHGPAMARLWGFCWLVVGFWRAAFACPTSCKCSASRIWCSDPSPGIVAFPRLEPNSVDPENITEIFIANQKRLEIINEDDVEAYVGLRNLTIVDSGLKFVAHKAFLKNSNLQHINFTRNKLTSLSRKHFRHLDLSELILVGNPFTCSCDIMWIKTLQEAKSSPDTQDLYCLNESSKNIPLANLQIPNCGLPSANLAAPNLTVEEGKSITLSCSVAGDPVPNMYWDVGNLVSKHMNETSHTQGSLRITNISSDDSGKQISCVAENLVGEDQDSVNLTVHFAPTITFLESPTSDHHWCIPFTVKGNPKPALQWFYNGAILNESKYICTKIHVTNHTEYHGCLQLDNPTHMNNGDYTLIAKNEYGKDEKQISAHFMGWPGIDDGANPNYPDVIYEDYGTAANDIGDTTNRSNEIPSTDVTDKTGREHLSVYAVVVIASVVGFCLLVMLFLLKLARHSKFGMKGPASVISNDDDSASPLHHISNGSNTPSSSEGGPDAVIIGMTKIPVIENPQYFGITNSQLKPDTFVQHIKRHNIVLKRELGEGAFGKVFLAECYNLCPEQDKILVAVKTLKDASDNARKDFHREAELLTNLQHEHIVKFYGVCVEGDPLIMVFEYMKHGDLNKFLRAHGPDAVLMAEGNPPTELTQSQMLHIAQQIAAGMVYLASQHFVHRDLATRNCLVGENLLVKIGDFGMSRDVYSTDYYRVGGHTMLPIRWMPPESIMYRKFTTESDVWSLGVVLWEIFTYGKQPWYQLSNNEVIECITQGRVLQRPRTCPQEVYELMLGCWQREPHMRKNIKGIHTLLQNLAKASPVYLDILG
Sequence of TAOK3 (human) (Q9H2K8 whole entry, looked up): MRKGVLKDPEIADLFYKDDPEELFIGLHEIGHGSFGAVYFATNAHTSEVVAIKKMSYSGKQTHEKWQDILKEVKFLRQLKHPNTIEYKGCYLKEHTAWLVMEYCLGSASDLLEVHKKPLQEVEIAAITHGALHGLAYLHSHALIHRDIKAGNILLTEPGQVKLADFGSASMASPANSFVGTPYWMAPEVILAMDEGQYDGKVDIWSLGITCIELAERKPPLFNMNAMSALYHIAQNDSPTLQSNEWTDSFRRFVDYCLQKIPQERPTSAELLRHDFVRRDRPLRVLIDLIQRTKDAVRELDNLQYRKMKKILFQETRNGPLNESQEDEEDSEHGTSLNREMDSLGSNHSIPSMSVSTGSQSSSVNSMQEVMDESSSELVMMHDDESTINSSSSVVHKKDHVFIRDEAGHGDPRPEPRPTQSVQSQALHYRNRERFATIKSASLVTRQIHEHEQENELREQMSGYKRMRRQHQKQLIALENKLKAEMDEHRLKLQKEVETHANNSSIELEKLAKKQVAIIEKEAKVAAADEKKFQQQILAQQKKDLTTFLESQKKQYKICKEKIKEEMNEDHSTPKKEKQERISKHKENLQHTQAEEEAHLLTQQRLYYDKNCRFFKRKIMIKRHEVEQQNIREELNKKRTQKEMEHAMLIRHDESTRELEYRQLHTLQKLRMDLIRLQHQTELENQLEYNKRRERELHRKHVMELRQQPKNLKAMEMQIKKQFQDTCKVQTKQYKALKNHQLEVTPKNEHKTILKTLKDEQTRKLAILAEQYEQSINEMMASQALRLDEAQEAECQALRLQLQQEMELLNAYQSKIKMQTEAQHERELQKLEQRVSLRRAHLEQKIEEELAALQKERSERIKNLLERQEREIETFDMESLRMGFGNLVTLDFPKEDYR
Sequence of NLK (human) (Q9UBE8 whole entry, looked up): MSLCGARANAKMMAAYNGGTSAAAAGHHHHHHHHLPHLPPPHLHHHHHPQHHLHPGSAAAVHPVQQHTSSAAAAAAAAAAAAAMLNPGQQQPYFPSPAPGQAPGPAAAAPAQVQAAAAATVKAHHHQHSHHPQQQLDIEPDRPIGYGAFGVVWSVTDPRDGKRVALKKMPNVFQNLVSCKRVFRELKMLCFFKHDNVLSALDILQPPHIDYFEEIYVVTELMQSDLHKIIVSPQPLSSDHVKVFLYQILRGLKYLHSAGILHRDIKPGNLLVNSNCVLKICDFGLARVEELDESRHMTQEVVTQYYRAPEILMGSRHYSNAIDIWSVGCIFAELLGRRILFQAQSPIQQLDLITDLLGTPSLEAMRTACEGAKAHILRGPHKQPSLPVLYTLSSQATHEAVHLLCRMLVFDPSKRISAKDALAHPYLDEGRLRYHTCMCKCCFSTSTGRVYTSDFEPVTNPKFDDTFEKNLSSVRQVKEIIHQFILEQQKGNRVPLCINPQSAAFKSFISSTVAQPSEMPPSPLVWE
Sequence of PRKCE (human) (Q02156 whole entry, looked up): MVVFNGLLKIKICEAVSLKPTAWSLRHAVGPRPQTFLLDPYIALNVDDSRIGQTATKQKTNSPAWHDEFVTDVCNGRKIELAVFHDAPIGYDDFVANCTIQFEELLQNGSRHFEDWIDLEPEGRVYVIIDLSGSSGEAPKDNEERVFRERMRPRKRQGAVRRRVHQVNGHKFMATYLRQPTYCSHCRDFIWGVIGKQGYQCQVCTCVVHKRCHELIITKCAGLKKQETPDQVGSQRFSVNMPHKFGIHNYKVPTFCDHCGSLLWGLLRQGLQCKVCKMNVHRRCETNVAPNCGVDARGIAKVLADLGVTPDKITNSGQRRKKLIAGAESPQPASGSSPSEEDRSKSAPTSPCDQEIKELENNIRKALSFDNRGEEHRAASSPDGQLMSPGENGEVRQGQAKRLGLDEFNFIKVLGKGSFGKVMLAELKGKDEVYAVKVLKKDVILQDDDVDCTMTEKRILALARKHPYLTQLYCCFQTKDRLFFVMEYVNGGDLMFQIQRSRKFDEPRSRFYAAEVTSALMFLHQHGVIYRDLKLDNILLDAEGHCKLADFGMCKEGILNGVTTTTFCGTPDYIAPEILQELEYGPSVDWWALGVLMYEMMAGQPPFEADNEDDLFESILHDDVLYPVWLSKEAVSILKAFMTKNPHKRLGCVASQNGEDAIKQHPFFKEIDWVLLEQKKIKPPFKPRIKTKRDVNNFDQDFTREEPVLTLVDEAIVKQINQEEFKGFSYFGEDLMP
Sequence of CLK1 (human) (P49759 whole entry, looked up): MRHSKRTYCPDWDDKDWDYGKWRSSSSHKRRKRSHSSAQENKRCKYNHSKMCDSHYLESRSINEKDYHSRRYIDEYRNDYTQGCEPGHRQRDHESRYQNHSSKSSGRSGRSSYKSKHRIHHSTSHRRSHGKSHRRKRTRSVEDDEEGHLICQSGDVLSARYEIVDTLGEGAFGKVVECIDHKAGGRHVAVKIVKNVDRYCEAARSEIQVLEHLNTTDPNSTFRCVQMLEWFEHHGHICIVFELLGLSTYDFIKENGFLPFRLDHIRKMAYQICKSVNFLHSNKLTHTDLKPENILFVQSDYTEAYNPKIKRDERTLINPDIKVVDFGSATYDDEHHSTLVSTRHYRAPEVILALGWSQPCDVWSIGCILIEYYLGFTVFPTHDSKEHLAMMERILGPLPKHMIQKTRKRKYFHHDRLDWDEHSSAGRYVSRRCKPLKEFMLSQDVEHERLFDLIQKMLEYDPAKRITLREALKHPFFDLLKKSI

CNc1cc2c(Nc3cccc(Br)c3)ncnc2cn1
residual activity (PAK1 (human)): 94.9%
residual activity (DAPK1 (human)): 80.5%
residual activity (HIPK4 (human)): 82.8%
residual activity (YES1 (human)): 74.7%
residual activity (MAP3K9 (human)): 94.4%
residual activity (TAOK3 (human)): 94%
residual activity (MYO3B (human)): 91.1%
residual activity (SGK3 (human)): 96.8%
residual activity (ZAP70 (human)): 99.1%
residual activity (TEK (human)): 87.9%
residual activity (AURKB (human)): 76.3%
residual activity (WNK2 (human)): 114%
residual activity (HIPK2 (human)): 98.4%
residual activity (ITK (human)): 92.5%
residual activity (PLK3 (human)): 96.4%
residual activity (AXL (human)): 98.6%
residual activity (PRKCE (human)): 99.8%
residual activity (PTK2B (human)): 94.5%
residual activity (FLT3 (human)): 71.2%
residual activity (CDK9 CCNT1 (human)): 106%
residual activity (MAP3K3 (human)): 73.3%
residual activity (CSNK1E (human)): 84.8%
residual activity (GSG2 (human)): 91.8%
residual activity (SRPK2 (human)): 89.4%
residual activity (CAMK1G (human)): 97.9%
residual activity (NLK (human)): 84.3%
residual activity [1]: 80.8%
residual activity (STK33 (human)): 95.2%
residual activity (CDK9 CCNK (human)): 105%
residual activity (NTRK2 (human)): 94.3%
residual activity (TXK (human)): 79.9%
residual activity (MAP3K14 (human)): 126%
residual activity (STK38 (human)): 98.5%
residual activity (MAP3K5 (human)): 94.6%
residual activity (RPS6KB2 (human)): 99.8%
residual activity (MAPKAPK2 (human)): 99.6%
residual activity (CLK1 (human)): 106%
residual activity (PLK2 (human)): 97.5%
residual activity (FLT1 (human)): 83.5%
residual activity (STK4 (human)): 95.4%
residual activity (IGF1R (human)): 115%
residual activity (SYK (human)): 95.3%

Oc1cccc(-c2nc(N3CCOCC3)c3oc4ncccc4c3n2)c1
residual activity (PAK1 (human)): 97.6%
residual activity (DAPK1 (human)): 78%
residual activity (HIPK4 (human)): 107%
residual activity (YES1 (human)): 94.3%
residual activity (MAP3K9 (human)): 103%
residual activity (TAOK3 (human)): 86.8%
residual activity (MYO3B (human)): 81.3%
residual activity (SGK3 (human)): 95.8%
residual activity (ZAP70 (human)): 91.4%
residual activity (TEK (human)): 87.7%
residual activity (AURKB (human)): 99.4%
residual activity (WNK2 (human)): 119%
residual activity (HIPK2 (human)): 102%
residual activity (ITK (human)): 93.1%
residual activity (PLK3 (human)): 94.6%
residual activity (AXL (human)): 105%
residual activity (PRKCE (human)): 100%
residual activity (PTK2B (human)): 103%
residual activity (FLT3 (human)): 87.1%
residual activity (CDK9 CCNT1 (human)): 105%
residual activity (CSNK1E (human)): 87.1%
residual activity (GSG2 (human)): 90.3%
residual activity (SRPK2 (human)): 97.3%
residual activity (CAMK1G (human)): 99.2%
residual activity (NLK (human)): 97.4%
residual activity [1]: 73.6%
residual activity (CDK9 CCNK (human)): 96%
residual activity (NTRK2 (human)): 90.2%
residual activity (TXK (human)): 94.8%
residual activity (STK38 (human)): 99%
residual activity (MAP3K5 (human)): 101%
residual activity (RPS6KB2 (human)): 95.8%
residual activity (MAPKAPK2 (human)): 97.8%
residual activity (CLK1 (human)): 85.2%
residual activity (PLK2 (human)): 94.7%
residual activity (FLT1 (human)): 83.6%
residual activity (STK4 (human)): 93.3%
residual activity (IGF1R (human)): 97.1%
residual activity (SYK (human)): 94.2%

N#CC(C#N)=C(N)/C(C#N)=C/c1ccc(O)cc1
residual activity (PAK1 (human)): 90.9%
residual activity (DAPK1 (human)): 92.7%
residual activity (HIPK4 (human)): 99.7%
residual activity (YES1 (human)): 100%
residual activity (MAP3K9 (human)): 94.4%
residual activity (TAOK3 (human)): 102%
residual activity (MYO3B (human)): 88.1%
residual activity (SGK3 (human)): 103%
residual activity (ZAP70 (human)): 96%
residual activity (TEK (human)): 104%
residual activity (AURKB (human)): 91%
residual activity (HIPK2 (human)): 102%
residual activity (ITK (human)): 98.7%
residual activity (PLK3 (human)): 63.6%
residual activity (AXL (human)): 93.7%
residual activity (PRKCE (human)): 89.3%
residual activity (PTK2B (human)): 97.4%
residual activity (FLT3 (human)): 92.2%
residual activity (CDK9 CCNT1 (human)): 83.9%
residual activity (MAP3K3 (human)): 78.6%
residual activity (CSNK1E (human)): 92.4%
residual activity (GSG2 (human)): 90.1%
residual activity (SRPK2 (human)): 88.8%
residual activity (CAMK1G (human)): 104%
residual activity (NLK (human)): 96.7%
residual activity [1]: 97.4%
residual activity (STK33 (human)): 93.2%
residual activity (CDK9 CCNK (human)): 100%
residual activity (NTRK2 (human)): 95.4%
residual activity (TXK (human)): 100%
residual activity (MAP3K14 (human)): 108%
residual activity (STK38 (human)): 96.9%
residual activity (MAP3K5 (human)): 103%
residual activity (RPS6KB2 (human)): 96.8%
residual activity (MAPKAPK2 (human)): 91.3%
residual activity (CLK1 (human)): 96.5%
residual activity (PLK2 (human)): 99.9%
residual activity (FLT1 (human)): 90.7%
residual activity (STK4 (human)): 99.1%
residual activity (IGF1R (human)): 90.6%
residual activity (SYK (human)): 101%
